Structures are written as SMILES.

In one experiment the target is T1, recombinant human NPY Y2 receptors (Homo sapiens, UniProt P49146).
T1 construct: expressed in transfected cells; host or cells: CHO-C4 cells (membrane preparation)
T1 sequence (P49146 1-381): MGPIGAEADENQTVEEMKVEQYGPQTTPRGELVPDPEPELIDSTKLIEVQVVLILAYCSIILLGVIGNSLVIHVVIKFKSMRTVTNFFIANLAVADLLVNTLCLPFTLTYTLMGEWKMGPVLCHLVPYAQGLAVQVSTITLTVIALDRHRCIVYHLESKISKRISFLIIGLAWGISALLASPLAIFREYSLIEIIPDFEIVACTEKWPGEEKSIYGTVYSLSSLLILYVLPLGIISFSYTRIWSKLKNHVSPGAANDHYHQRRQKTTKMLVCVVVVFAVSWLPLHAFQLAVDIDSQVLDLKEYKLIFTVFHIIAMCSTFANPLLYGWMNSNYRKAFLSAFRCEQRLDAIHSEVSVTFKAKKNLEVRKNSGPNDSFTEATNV
The experiment in a line: Scintillation proximity [35S]GTPγS binding assay (inhibition of 0.5 nM NPY-stimulated [35S]GTPγS binding). The note with it: 10 μM compound, membranes from CHO-C4 cells expressing recombinant human NPY Y2 receptors. Format: biochemical. Here is the method:
Preparation of Membranes: CHO-C4 cells expressing recombinant human NPY Y2 receptors were used to prepare membranes for the GTPγS assay. Cells were grown to 80-95% confluency on 15-cm (225 cm^2) tissue culture plates. After aspiration of the culture medium, cells were washed twice with 18 ml ice-cold phosphate-buffered saline (PBS), scraped off and suspended in 3 ml ice-cold PBS in pre-cooled centrifuge tubes. The dishes were rinsed with 2 ml ice-old PBS per dish and the washings were combined with the PBS cell suspension from above. Cells pooled from 5-7 dishes were centrifuged for 5 min at 10,000 rpm (12,000 g) in a Sorvall RC5B centrifuge using an SS34 rotor at […]. The cell pellet was resuspended in 5 ml ice-cold buffer (20 mM HEPES, 10 mM EDTA; pH 7.4) by vortexing (2-5 sec), homogenized using a Polytron (step 4 for 20-30 sec), and ice-cold buffer added to 25 ml. The suspension was centrifuged again for 20 min at 18,000 rpm (39,000 g) at 4° C. and the pellet resuspended in 5 ml ice-cold buffer (20 mM HEPES, 0.1 mM EDTA; pH 7.4) by vortexing (2-5 sec), homogenized with a Polytron (step 4 for 10 sec), and ice-cold buffer added to 25 ml. The suspension was centrifuged a third time for 20 min at 18,000 rpm (39,000 g) at 4° C. The pellet was resuspend in 1 ml ice-cold buffer (20 mM Hepes, 0.1 mM EDTA; pH 7.4) by vortexing (5-8 sec). Two to five resuspended pellets were combined and homogenized using a Polytron (step 4 for 15-25 sec). A small aliquot (20-50 μl) was removed for protein determination by the Coomassie Plus Protein Assay Reagent (Pierce) using BSA as standard. The membrane suspension was aliquoted in precooled (on dry ice) Eppendorf tubes (0.25-1 ml/tube affording approximately 0.5-2 mg of membrane protein/tube). The pellets were frozen and stored at −80° C.
Scintillation proximity [^35S]GTPγS binding assay: Frozen membranes from CHO-C4 cells expressing recombinant human NPY Y2 receptors (2 mg for four 96-well plates) were thawed on ice. Thawed membranes were pipetted into 10 ml of assay buffer (20 mM HEPES, 10 mM MgCl2, 100 mM NaCl, pH 7.4) and homogenized briefly using a Polytron. The final assay mixture was prepared in 96-well microtiter plates (Isoplate Wallac, Perkin Elmer). The composition of the assay mixtures in a final volume of 250 μl per well was as follows: 20 mM HEPES, 10 mM MgCl2, 100 mM NaCl, pH 7.4, 30 μM GDP, 1 mg/ml BSA (added fresh), 5 μg membrane protein, 1.5 mg Wheatgerm agglutinin SPA beads (Amersham), 0.45 nM [^35S]GTPγS (Amersham, SJ1308, 1000 Ci/mmol, stabilized solution), and the test compounds (agonists and/or antagonists) at the appropriate concentrations. The samples were incubated at room temperature for 90 min by shaking, after which the SPA beads were sedimented by centrifugation in an Eppendorf 5804 centrifuge at 2700 rpm for 10 min at room temperature. After 60 min the plates were counted in a TopCount (Canberra). Basal [^35S]GTPγS binding was measured in the absence of agonist (NPY). Non-specific binding was measured in the presence of excess (10 μM) unlabelled GTPγS (Sigma). Nonspecific binding never exceeded 10% of basal binding and was thus not subtracted from the experimental data. Antagonists were tested for the inhibition of 0.5 nM NPY-stimulated [^35S]GTPγS binding. Antagonist inhibition curves were analyzed by non-linear regression using GraphPad Prism software (Version 4.0, GraphPad Software Inc., CA, USA).
Antagonistic activity of compounds of the present invention was examined by the Scintillation proximity [^35S]GTPγS binding assay as described above (inhibition of 0.5 nM NPY-stimulated [^35S]GTPγS binding). The table below represents percentages of inhibition at a concentration of 10 μM.
On the technique in general: SPA uses beads or plates that emit light when radiolabelled molecules are held near them.
On to `CCCC1(c2ccc(F)cc2)N=C(C)N(CC(=O)c2ccc(NC(=O)Cc3c(C)noc3C)cc2F)C1=O` (single isomer, unassigned; (+)) [Compound 36, (+)-2-(3,5-Dimethyl-isoxazol-4-yl)-N-(3-fluoro-4-{2-[4-(4-fluoro-phenyl)-2-methyl-5-oxo-4-propyl-4,5-dihydro-imidazol-1-yl]-acetyl}-phenyl)-acetamide], for which the “[%] inhibiton at 10 μM” value is reported as 75%. On the same count and under the same terms, the value for `CCCC1(c2ccc(F)cc2)N=C(C)N(CC(=O)c2ccc(NC(=O)C3CCOC3)cc2F)C1=O` (centres unmarked) [Compound 14, Tetrahydro-furan-3-carboxylic acid (34-fluoro-4-{2-[4-(4-fluoro-phenyl)-2-methyl-5-oxo-propyl-4,5-dihydro-imidazol-1-yl]-acetyl}-phenyl)-amide] was 39%; that for `CCCC1(c2ccc(F)cc2)N=C(C)N(CC(=O)c2ccc(N(C)C(=O)N(C)c3c(C)noc3C)cc2F)C1=O` (racemic) [Compound 18] was 70%; that for `CCCC1(c2ccccc2)N=C(C)N(CC(=O)c2ccc(NC(=O)C(CC)CC)cc2)C1=O` (single isomer, unassigned; (+)) [Compound 25] was 92%. Still for that read-out and setting: the value for `COc1ccccc1CC(=O)Nc1ccc(C(=O)CN2C(=O)C(c3ccccc3)(c3ccccc3)N=C2C)cc1` [Compound 30, 2-(2-Methoxy-phenyl)-N-{4-[2-(2-methyl-5-oxo-4,4-phenyl-4,5-dihydro-imidazol-1yl)-acetyl]-phenyl}-acetamide] was 78%.

Staying with this experiment, now noted: 10 μM compound, membranes from CHO-C4 cells expressing recombinant human NPY Y2 receptors, read-out: [%] inhibiton at 10 μM.
On to `CCCC1(c2ccc(F)cc2)N=C(C)N(CC(=O)c2ccc(NC(=O)C3CCOC3)cc2)C1=O` (centres unmarked) [Compound 16, Tetrahydro-furan-3-carboxylic acid (4-{2-[4-(4-fluoro-phenyl)-2-methyl-5-oxo-4-propyl-4,5-dihydro-imidazol-1-yl]-acetyl}-phenyl)-amide], for which the inhibition at 10 µM turned out to be 28%. On the same count and under the same terms, the result for `CC1=NC(c2ccccc2)(c2ccccc2)C(=O)N1CC(=O)c1ccc(C(=O)NC(C)C(C)C)cc1` (racemic) [Compound 1, (+/−)-N-(1,2-Dimethyl-propyl)-4-[2-(2-methyl-5-oxo-4,4-diphenyl-4,5-dihydro-imidazol-1-yl)-acetyl]-benzamide] reads 34%; that for `CCCC1(c2ccc(F)cc2)N=C(C)N(CC(=O)c2ccc(NC(=O)C(CC)CC)cc2)C1=O` (racemic) [Compound 9, (+/−)-2-Ethyl-N-(4-{2-[4-(4-fluoro-phenyl)-2-methyl-5-oxo-4-propyl-4,5-dihydro-imidazol-1-yl]-acetyl}-phenyl)-butyramide], 68%.

Turning to `CCC(CC)C(=O)Nc1ccc(CCN2C(=O)C(c3ccccc3)(c3ccccc3)N=C2C)cc1` [Compound 4, 2-Ethyl-N-{4-[2-(2-methyl-5-oxo-4,4-diphenyl-4,5-dihydro-imidazol-1-yl)ethyl]-phenyl}-butyramide], the inhibition at 10 µM turned out to be 46%.

On to `CC1=NC(c2ccccc2)(c2ccccc2)C(=O)N1CCc1ccc(NC(=O)CC(C)C)cc1` [Compound 5, 3-Methyl-N-{4-[2-(2-methyl-5-oxo-4,4-diphenyl-4,5-dihydro-imidazol-1-yl)-ethyl]-phenyl}-butyramide], for which the inhibition at 10 µM stood at 35%. Same read-out and setting: the result for `CCCC1(c2ccccc2)N=C(C)N(CC(=O)c2ccc(NC(=O)Nc3c(C)noc3C)cc2)C1=O` (racemic) [Compound 6, (+/−)-1-(3,5-Dimethyl-isoxazol-4-yl)-3-{4-[2-(2-methyl-5-oxo-4-phenyl-4-propyl-4,5-dihydro-imidazol-1-yl)-acetyl]-phenyl}-urea] reads 99%; that for `CC1=NC(c2ccccc2)(c2ccccc2)C(=O)N1CC(=O)c1ccc(NC(=O)c2ccccc2F)cc1` [Compound 21, 2-Fluoro-N-{4-[2-(2-methyl-5-oxo-4,4-diphenyl-4,5-dihydro-imidazol-1-yl)-acetyl]-phenyl}-benzamide], 61%. On the same count and under the same terms, the value for `CC1=NC(c2ccccc2)(c2ccccc2)C(=O)N1CC(=O)c1ccc(NC(=O)Nc2c(C)noc2C)cc1` [Compound 27, 1-(3,5-Dimethyl-isoxazol-4-yl)-3-{4-[2-(2-methyl-5-oxo-4,4-diphenyl-4,5-dihydro-imidazol-1-yl)-acetyl]-phenyl}-urea] was 100%; that for `CCCC1(c2ccccc2)N=C(C)N(CC(=O)c2ccc(NC(=O)C3CCOC3)cc2F)C1=O` (centres unmarked) [Compound 15, Tetrahydro-furan-3-carboxylic acid {3-fluoro-4-[2-(2-methyl-5-oxo-4-phenyl-4-propyl-4,5-dihydro-imidazol-1yl)-acetyl]-phenyl}-amide] was 42%; that for `COc1ccccc1C(=O)Nc1ccc(C(=O)CN2C(=O)C(c3ccccc3)(c3ccccc3)N=C2C)cc1` [Compound 23, 2-Methoxy-N-{4-[2-(2-methyl-5-oxo-4,4-diphenyl-4,5-dihydro-imidazol-1-yl)-acetyl]-phenyl}-benzamide] was 46%.

Consider `CCCC1(c2ccc(F)cc2)N=C(C)N(CC(=O)c2ccc(NC(=O)Nc3c(C)noc3C)cc2)C1=O` (racemic) [Compound 7, (+/−)-1-(3,5-Dimethyl-isoxazol-4-yl)-3-(4-{2-[4-(4-fluoro-phenyl)-2-methyl-5-oxo-4-propyl-4,5-dihydro-imidazol-1-yl]-acetyl}-phenyl)urea], for which the inhibition at 10 µM came out at 91%.

As to `CCC(CC)C(=O)Nc1ccc(C(=O)CN2C(=O)C(c3ccccc3)(c3ccccc3)N=C2C)cc1` [Compound 34, 2-Ethyl-N-{4-[2-(2-methyl-5-oxo-4,4-diphenyl-4,5-dihydro-imidazol-1-yl)-acetyl]-phenyl}-butyramide], the inhibition at 10 µM was found to be 65%.

Consider `CCC(CC)C(=O)Nc1ccc(C(O)CN2C(=O)C(c3ccccc3)(c3ccccc3)N=C2C)cc1` (racemic) [Compound 26, (+/−)-2-Ethyl-N-{4-[1-hydroxy-2-(2-methyl-5-oxo-4,4-diphenyl-4,5-dihydro-imidazol-1-yl)-ethyl]-phenyl}-butyramide], for which the inhibition at 10 µM was found to be 45%. Regarding `CCCC1(c2ccc(F)cc2)N=C(C)N(CC(=O)c2ccc(NC(=O)Cc3c(C)noc3C)cc2F)C1=O` (single isomer, unassigned; (-)) [Compound 35, (−)-2-(3,5-Dimethyl-isoxazol-4-yl)-N-(3-fluoro-4-{2-[4-(4-fluoro-phenyl)-2-methyl-5-oxo-4-propyl-4,5-dihydro-imidazol-1-yl]-acetyl}-phenyl)acetamide], the inhibition at 10 µM was found to be 92%. Same read-out and setting: the value for `CCC(CC)C(=O)Nc1ccc(C(=O)CN2C(=O)C(c3ccccc3)(c3ccccc3)N=C2C)c(F)c1` [Compound 33, 2-Ethyl-N-{3-fluoro-4-[2-(2-methyl-5-oxo-4,4-diphenyl-4,5-dihydro-imidazol-1-yl)-acetyl]-phenyl}-butyramide] was 60%.

For the origin of these results see patent US7786155B2, “Organic compounds” (Novartis AG, priority 2007, dated 2010).
